The text below walks through data of patent US9044491B2, “Method for improving blood flow using stilbenoid derivatives” (The Board of Trustees of the University of Arkansas, priority 2010, dated 2015).

One data set has as its target T1, human CB2 (Homo sapiens, UniProt P34972).
T1 construct: expressed in transfected cells; host or cells: CHO cells stably transformed with human CB2
The data set is described as follows: CB2 binding, 3H-CP 55,940 displacement in CHO-hCB2 membranes. As to conditions: 0.2 nM 3H-CP 55,940.

Data set [1] addresses T2, CB1 receptors (Mus musculus, UniProt P47746).
T2 construct: from tissue; host or cells: mouse brain membranes
It is filed as biochemical.

The subject of data set [2] is CLP or Control (Sham) mice. Briefly: Renal arterial blood flow by Doppler flow probe. Format: in vivo, mouse. As to conditions: CPL-treated mice. An excerpt: Under isoflurane anesthesia, the right kidney was exposed by flank incision and the renal artery and vein were carefully dissected from surrounding tissue with Dumont-5 forceps. The renal artery was isolated from the vein and a Transonic Systems (Ithaca, N.Y.) 0.5 PSL renal artery Doppler flow probe was positioned around the renal artery. The probe was calibrated in water using the zero and scale settings on the TS420 flowmeter (Transonic Systems). […] Body temperature was maintained at 36 to 37° C. with a heating lamp. Data were expressed in ml/min/g kidney weight.
Renal blood flow was measured essentially as described above in Example 10 following CPL surgery or control treatment (no surgery). CPL-treated mice were administered 10 mg/kg of resveratrol, 2.5 mg/kg of resveratrol-3-sulfate, or vehicle. […] In fact, resveratrol-3-sulfate produced the same degree of reversal at 25% of the dose of resveratrol.

The test system of data set [3] is CB1 receptors. It is filed as biochemical, mouse. As to conditions: 10 μM compound, 30 min at 30° C.
The target in the next data set is T3, human UGT1A10 (Homo sapiens, UniProt Q9HAW8).
T3 sequence (Q9HAW8 26-530): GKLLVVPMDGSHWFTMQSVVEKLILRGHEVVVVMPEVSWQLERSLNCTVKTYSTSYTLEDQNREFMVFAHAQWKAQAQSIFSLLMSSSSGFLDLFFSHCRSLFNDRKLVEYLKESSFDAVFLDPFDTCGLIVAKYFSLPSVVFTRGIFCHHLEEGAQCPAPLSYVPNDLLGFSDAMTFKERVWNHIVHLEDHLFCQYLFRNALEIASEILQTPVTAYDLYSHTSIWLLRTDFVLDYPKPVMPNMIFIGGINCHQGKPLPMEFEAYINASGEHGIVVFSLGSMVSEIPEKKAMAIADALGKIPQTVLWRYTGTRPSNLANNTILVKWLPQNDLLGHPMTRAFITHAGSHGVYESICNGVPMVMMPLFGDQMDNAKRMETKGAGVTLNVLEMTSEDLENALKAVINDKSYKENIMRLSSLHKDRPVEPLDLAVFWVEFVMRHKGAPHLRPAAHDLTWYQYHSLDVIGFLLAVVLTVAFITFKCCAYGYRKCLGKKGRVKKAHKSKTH
Briefly: Glucuronidation by recombinant human UGT1A10 (activity and kinetic constants).

The target of a further data set is T4, human UGT1A1 (Homo sapiens, UniProt P22309).
T4 sequence (P22309 26-533): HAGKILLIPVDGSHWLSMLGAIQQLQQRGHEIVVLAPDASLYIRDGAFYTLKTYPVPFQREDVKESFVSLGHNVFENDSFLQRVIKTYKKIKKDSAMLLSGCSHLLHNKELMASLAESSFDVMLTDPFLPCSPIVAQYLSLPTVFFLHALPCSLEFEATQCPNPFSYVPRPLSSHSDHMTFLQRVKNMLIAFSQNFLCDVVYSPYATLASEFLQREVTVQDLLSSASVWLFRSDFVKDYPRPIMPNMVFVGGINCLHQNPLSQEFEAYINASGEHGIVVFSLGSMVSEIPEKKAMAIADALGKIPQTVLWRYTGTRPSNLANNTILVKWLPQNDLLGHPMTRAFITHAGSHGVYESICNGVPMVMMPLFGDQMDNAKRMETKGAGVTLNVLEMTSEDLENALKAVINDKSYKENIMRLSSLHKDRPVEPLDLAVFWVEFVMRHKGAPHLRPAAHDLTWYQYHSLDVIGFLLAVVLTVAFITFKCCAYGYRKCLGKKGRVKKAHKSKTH
The data set is described as follows: Glucuronidation by recombinant human UGT1A1 (activity and kinetic constants).

Data set [4] has as its target T2, CB1 receptors. The data set is described as follows: CB1 binding, 3H-CP 55,940 displacement in mouse brain membranes. As to conditions: isoprenyl group and additional hydroxyl group.
Experimental: (§1) Membrane preparations were prepared from mouse brain to examine CB1 binding. For CB2 binding, membrane preparations were prepared from CHO cells stably transformed with human CB2.
The subject of data set [5] is human intestinal microsomes. The data set is described as follows: Glucuronidation by human intestinal microsomes. Format: in vitro ADME. As to conditions: substrate 250 μM, UDP-GlcUA 4 mM. The method, then:
Glucuronidation products were analyzed by HPLC and LCMS/MS.

Where two headings read alike, the source gives them in different places.

T2 sequence (P47746 whole entry): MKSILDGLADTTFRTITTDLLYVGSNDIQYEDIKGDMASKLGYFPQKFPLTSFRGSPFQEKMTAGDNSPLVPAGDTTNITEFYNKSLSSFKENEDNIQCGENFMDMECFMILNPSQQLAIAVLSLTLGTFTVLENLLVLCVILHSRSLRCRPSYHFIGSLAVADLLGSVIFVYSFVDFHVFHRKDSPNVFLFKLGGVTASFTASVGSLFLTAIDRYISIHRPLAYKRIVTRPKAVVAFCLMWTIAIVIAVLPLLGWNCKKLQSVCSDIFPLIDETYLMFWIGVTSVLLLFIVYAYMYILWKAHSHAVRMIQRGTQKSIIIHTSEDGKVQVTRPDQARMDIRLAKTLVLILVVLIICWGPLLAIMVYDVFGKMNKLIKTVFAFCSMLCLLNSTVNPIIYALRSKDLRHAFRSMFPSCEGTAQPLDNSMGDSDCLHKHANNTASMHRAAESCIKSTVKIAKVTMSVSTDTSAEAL
T1 sequence (P34972 whole entry): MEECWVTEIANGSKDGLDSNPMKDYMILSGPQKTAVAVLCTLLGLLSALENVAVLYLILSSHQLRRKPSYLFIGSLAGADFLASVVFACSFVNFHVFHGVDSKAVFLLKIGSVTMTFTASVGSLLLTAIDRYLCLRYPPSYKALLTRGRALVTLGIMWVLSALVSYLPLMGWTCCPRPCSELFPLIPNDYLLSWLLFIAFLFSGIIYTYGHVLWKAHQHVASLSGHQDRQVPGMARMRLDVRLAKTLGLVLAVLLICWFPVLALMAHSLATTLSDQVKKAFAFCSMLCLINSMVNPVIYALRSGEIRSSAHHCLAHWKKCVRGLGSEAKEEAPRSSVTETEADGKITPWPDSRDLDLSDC
Experimental for human CB2: as §1
Experimental for human UGT1A10: Eight human recombinant UGT1A isoforms (UGT1A1, 1A3, 1A4, 1A6, 1A7, 1A8, 1A9, and 1A10; 5 μg) expressed as His-tag proteins in baculovirus-infected Sf9 insect cells and human liver microsomes (from one donor; HL2; 50 μg) and human intestinal microsomes (from two donors; HI36 and HI41; 50 μg) were evaluated for their ability to glucuronidate these four compounds. The concentrations of the substrate and co-substrate (i.e., UDP-GlcUA) were 250 μM and 4 mM, respectively. Glucuronidation products were analyzed by HPLC and LCMS/MS.
The kinetic constants of the glucuronidation reactions using recombinant human UGT1A1 and UGT1A10 were determined by measuring the enzyme activity in the presence of increasing concentrations of substrate (see FIG. 2).

One may read the Ki as the equilibrium dissociation constant of an inhibitor or competing ligand from its target. A high value points to lower affinity. In turn, `O=C(O)[C@H]1O[C@@H](Oc2ccc(/C=C/c3cc(O)cc(O)c3)cc2)[C@H](O)[C@@H](O)[C@@H]1O` [4′-Gluc-rRes] registered a Ki on human CB2 of more than 100000 nM.

For `CCCCCCC(C)(C)c1ccc([C@@H]2C[C@H](O)CC[C@H]2CCCO)c(O)c1` [CP-55,940], the G-protein activity entry on CB1 receptors [1] (1 μM compound, 30 min at 30° C.) is on record as “stimulated”. In addition, the “maximal response produced by CP-55,940” value at CB1 receptors [1] (CP-55,940 alone) is listed as 0.34±0.03 pmole/mg protein. In addition, the EC50 at CB1 receptors [1] (CP-55,940 alone, read-out: ED50 required to activate G-proteins) is 4.3 nM.

The compound `O=C(O)[C@H]1O[C@@H](Oc2cc(O)cc(/C=C/c3ccc(O)c(O)c3)c2)[C@H](O)[C@@H](O)[C@@H]1O` [3-Gluc-tPice] displayed a Ki at human CB2 of more than 100000 nM.

For `O=S(=O)(O)Oc1cc(O)cc(C=Cc2ccc(O)cc2)c1` [resveratrol-3-sulfate], in data set [2], the “dose producing the same degree of reversal, relative to resveratrol” value is 25 % of the dose of resveratrol. Besides, the renal blood flow entry in data set [2] (2.5 mg/kg (Example 15)) is given as “increased blood flow”.

With `Oc1cc(O)cc(/C=C/c2ccc(O)c(O)c2)c1` [tPice, trans-piceatannol], in the data set on CB1 receptors [3], the “basal G-protein activity” value is recorded as “markedly reduced”. Moreover, the Kinetics result at human UGT1A10 (product 3-glucuronide (3G)) was “M-M”; at human UGT1A10 (product 4′-glucuronide (4′G)), “Hill”; on human UGT1A1 (product 3-glucuronide (3G)), “M-M”; on human UGT1A1 (product 4′-glucuronide (4′G)) it was “M-M”. The “n (Hill coeff)” value at human UGT1A10 (product 4′-glucuronide (4′G)) came out at 1.7. The same compound gave a Ki at human CB2 of 114000 ± 7800 nM.

Consider trans-arachidin-1 [tA1], for which, on CB1 receptors [1] (in the presence of 10 μM tA-1), the “maximal response produced by CP-55,940” value was 0.22±0.04 pmole/mg protein. Besides, the EC50 at CB1 receptors [1] (in the presence of 10 μM tA-1, read-out: ED50 of CP-55,940 required to activate G-proteins) turned out to be 28 nM. For the same compound, in the data set on CB1 receptors [3], the “basal G-protein activity” value is “markedly reduced”. Also, the “kinetics of 4′-O-Gluc formation by UGT1A10” value on human UGT1A10 was “substrate inhibition kinetics”. The Kinetics entry at human UGT1A10 (product 4′-glucuronide (4′G)) is reported as “USI”. Further, on CB1 receptors [4], the “enhancement of binding affinity for CB1” value was determined as 2 fold. Besides, the “production of 3G glucuronide by HIM” value in data set [5] is “large amount”.

As to `CC(C)/C=C/c1c(O)cc(/C=C/c2ccc(O)cc2)cc1O` [tA3, trans-arachidin-3], the EC50 at CB1 receptors [1] (in the presence of 30 μM tA-3, read-out: ED50 of CP-55,940 required to activate G-proteins) amounted to 127 nM. Besides, the “basal G-protein activity” value with CB1 receptors [3] is listed as “little effect”. The “kinetics of 4′-O-Gluc formation by UGT1A10” value on human UGT1A10 was “substrate inhibition kinetics”. For the same compound, the values for the Kinetics result at human UGT1A10 (product 4′-glucuronide (4′G)), on human UGT1A1 (product 3-glucuronide (3G)) and at human UGT1A1 (product 4′-glucuronide (4′G)) were “USI”, “M-M” and “M-M”, respectively.
